Values quoted from earlier work in US20090068287A1, “Novel topical formulations of flucytosine and uses thereof” (priority 2007, published 2009).

Key:
C. glabrata [1] = conditions: boric acid 600 mg/day 2 to 3 weeks; flucytosine cream nightly for 14 days
C. albicans = conditions: 104 patients with vulvovaginal candidiasis
C. parapsilosis = conditions: 65 C. parapsilosis isolates
Candida albicans = conditions: 342 Candida albicans isolates
C. glabrata [2] = conditions: 68 C. glabrata isolates
C. tropicalis [3] = conditions: 70 C. tropicalis isolates
[4] = human, in vivo
C. tropicalis [5] = conditions: 28 patients on miconazole nitrate, 13 on clotrimazole, nightly for seven nights; 3 secondarily on ketoconazole 200 mg for 14 days

## C[C@@H]1[C@H](O)[C@@H](C)/C=C/C=C/C=C/C=C/C=C/C=C/C=C/[C@H](O[C@@H]2O[C@H](C)[C@@H](O)[C@H](N)[C@@H]2O)C[C@@H]2O[C@](O)(C[C@@H](O)C[C@@H](O)[C@H](O)CC[C@@H](O)C[C@@H](O)CC(=O)O[C@H]1C)C[C@H](O)[C@H]2C(=O)O [amphotericin B]
Clinical yeast isolates
  cross-resistance of fluconazole/itraconazole resistant C. albicans isolates: no cross-resistance

## OB(O)O [boric acid]
C. glabrata [1]
  clinical and mycological success / successful outcome, number of women: 47 of 73
  clinical and mycological success / successful outcome, percent of women: 64%

## OC(Cn1cncn1)(Cn1cncn1)c1ccc(F)cc1F [fluconazole]
C. albicans
  resistant C. albicans isolated, share of the cases: 13.46%
C. parapsilosis
  isolates resistant: 4.6%
Clinical yeast isolates; 227 clinical yeast isolates
  yeast strains resistant: Almost thirteen percent
Candida albicans
  isolates showing resistance: 7.6%
C. glabrata [2]
  isolates resistant: 10.3%
C. tropicalis [3]
  isolates resistant: 27.1%

## Nc1nc(=O)[nH]cc1F [flucytosine, 4-amino-5-fluoropyrimidin-2(1H)-one]
[4]
  plasma level that led to bone marrow depression and hepatotoxicity: greater than 100 mg/L

## CC(=O)N1CCN(c2ccc(OCC3COC(Cn4ccnc4)(c4ccc(Cl)cc4Cl)O3)cc2)CC1 (stereo not drawn) [ketoconazole]
C. tropicalis [5]
  patients with recurrences: all three
Clinical yeast isolates
  cross-resistance of fluconazole/itraconazole resistant C. albicans isolates: decreased susceptibilities
C. tropicalis [3]
  isolates resistant: 2.9%

## Clc1ccc(COC(Cn2ccnc2)c2ccc(Cl)cc2Cl)c(Cl)c1 (stereo not drawn) [miconazole]
Clinical yeast isolates
  cross-resistance of fluconazole/itraconazole resistant C. albicans isolates: decreased susceptibilities

## C[C@@H]1[C@H](O)[C@@H](C)/C=C/C=C/CC/C=C/C=C/C=C/C=C/C(O[C@H]2O[C@H](C)[C@@H](O)[C@H](N)[C@@H]2O)CC2O[C@](O)(CC(O)C(O)CCC(O)CC(O)CC(O)CC(=O)O[C@H]1C)CC(O)C2C(=O)O (stereo partly drawn) [nystatin]
Clinical yeast isolates
  cross-resistance of fluconazole/itraconazole resistant C. albicans isolates: no cross-resistance
